Experimental data published in PubChem BioAssay (NCI).
“And” between values parts separate entries of the source, which are not always exact repeats. Identical values can stand only once.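 1) Cells in 96-well plates. 2) Compound, 48 h, 5 concentrations. 3) Linear interpolation between surrounding doses. 4) Unreached endpoint = highest concentration. GI50 marks 50% less growth. At the TGI there is no net growth.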

What was measured:
Assay in all cases: inhibition of tumour cell growth, NCI panel, 48 h
BT-549 breast = system: BT-549 breast
NCI-H460 lung = system: NCI-H460 lung
PC-3 prostate = system: PC-3 prostate
SNB-19 CNS = system: SNB-19 CNS
HOP-62 NSCLC = system: HOP-62 NSCLC
EKVX NSCLC = system: EKVX NSCLC
NCI-H23 lung = system: NCI-H23 lung
SNB-75 CNS = system: SNB-75 CNS
M19-MEL melanoma = system: M19-MEL melanoma
HOP-18 NSCLC = system: HOP-18 NSCLC

Row | SMILES | GI50 (BT-549 breast) | TGI (BT-549 breast) | GI50 (NCI-H460 lung) | TGI (NCI-H460 lung) | GI50 (PC-3 prostate) | TGI (PC-3 prostate) | GI50 (SNB-19 CNS) | TGI (SNB-19 CNS) | GI50 (HOP-62 NSCLC) | TGI (HOP-62 NSCLC) | GI50 (EKVX NSCLC) | TGI (EKVX NSCLC) | GI50 (NCI-H23 lung) | TGI (NCI-H23 lung) | GI50 (SNB-75 CNS) | TGI (SNB-75 CNS) | TGI (M19-MEL melanoma) | GI50 (M19-MEL melanoma) | TGI (HOP-18 NSCLC)
1 | Nc1c([N+](=O)[O-])ncn1C1OC(CO)C(O)C1O (centres undefined) | > 100 µM | > 100 µM | > 100 µM | > 100 µM | > 100 µM | > 100 µM | > 100 µM | > 100 µM | > 100 µM | > 100 µM | > 100 µM | > 100 µM | > 100 µM | > 100 µM | > 100 µM | > 100 µM | – | – | –
2 | COC(=O)C1C(=O)NC2(C)CC1c1ccccc1O2 (centres undefined) | – | – | – | > 100 µM | – | – | – | > 100 µM | – | > 10 µM | – | – | – | > 100 µM | – | > 100 µM | > 100 µM | – | –
3 | COc1ccc(-c2nn(-c3cccc(Cl)c3)cc2-c2c(C#N)c(=O)n3[nH]c(-c4ccc(C)o4)nc3c2C#N)cc1 | 4.19 µM | 43.5 µM | 6.38 µM | > 50 µM | 2.25 µM | > 50 µM | 8.63 µM | > 50 µM | 14.1 µM | > 50 µM | 1.54 µM | 40.8 µM | 8.09 µM | > 50 µM | 1.56 µM | > 50 µM | – | – | –
4 | COc1ccc2cc1Oc1ccc(cc1)CC1c3c(cc(OC)c4c3Oc3cc5c(cc3O4)CCNC5C2)CCN1C (centres undefined) | – | 8.01 µM | 1.62 µM | 3.25 µM | – | 3.72 µM and 3.23 µM | – | 4.32 µM | 1.59 µM | 5.06 µM and 2.95 µM | 1.71 µM | 3.73 µM and 3.19 µM | 1.53 µM | 4.54 µM and 3.22 µM | 1.68 µM | 3.06 µM | – | – | –
5 | O=C(CC/C(CC(=O)c1ccc(Cl)cc1)=N\O)Nc1cccc(Cl)c1 | – | – | – | > 100 µM | – | – | – | > 100 µM | – | > 100 µM | – | > 100 µM | – | > 100 µM | – | > 100 µM | > 100 µM | – | –
6 | CC(C)OC(=O)c1cc(NC(=S)OC(C)C)ccc1Cl | – | 33.5 µM | – | > 55.3 µM | – | 50.9 µM | – | > 56.3 µM | – | > 100 µM | – | 32.7 µM | – | 68.1 µM | – | 47.5 µM | – | – | –
7 | CC1(O)CC2C(CC1SCc1ccccc1)C2(C)C (centres undefined) | – | – | – | 57.8 µM and 27.7 µM | – | – | 45.2 µM and 16.7 µM | > 100 µM and 30.7 µM | – | 57.9 µM and 30.5 µM | – | 77.3 µM and 31.7 µM | – | 58.5 µM and 27.4 µM | 33.8 µM and 15.3 µM | 92.4 µM and 28.6 µM | 57.8 µM and > 100 µM | 26.2 µM and > 100 µM | –
8 | c1ccc2[nH]c(-c3cscn3)nc2c1 | – | > 100 µM | – | > 100 µM | – | > 100 µM | – | > 100 µM | – | > 100 µM and 19.6 µM | – | > 100 µM | – | > 100 µM | – | > 100 µM | – | – | –
9 | CNc1ccc(CSc2ccc(C)cc2)cc1 | 3.08 µM | 23 µM | 25.3 µM | > 100 µM | 13.2 µM | > 100 µM | 38.6 µM | > 100 µM | > 100 µM | > 100 µM | 15.3 µM | > 100 µM | 25 µM | > 100 µM | 11.9 µM | > 100 µM | – | – | –
10 | CCOC(=O)c1cnc2c(ccc3ncccc32)c1OCC | – | – | – | > 100 µM | – | – | – | > 100 µM | – | > 100 µM | – | > 100 µM | – | > 100 µM | – | > 100 µM | > 100 µM | – | > 100 µM
11 | Cc1cc(N(CCC#N)CCC#N)ccc1/C=C1N=C(/C=C\c2ccccc2)N(c2ccc(C(=O)O)cc2)C\1=O | – | – | – | > 100 µM | – | – | – | > 100 µM | – | > 100 µM | – | – | – | > 100 µM | – | > 100 µM | > 100 µM | – | > 100 µM
12 | NC(=O)N1N=C2c3ccccc3OC[C@H]2[C@@H]1c1ccccc1 | – | – | – | 60.2 µM | – | – | – | > 100 µM | – | > 100 µM | – | > 100 µM | – | > 92.4 µM | – | > 91.7 µM | > 100 µM | – | > 100 µM
13 | COC(=O)c1sc(=S)c2sc(C(=O)OC)c(C(=O)OC)c2c1C(=O)OC | 46.8 µM | > 100 µM | 44.3 µM | > 100 µM | 37.2 µM | > 100 µM | 86.7 µM | > 100 µM | 59.7 µM | > 100 µM | 89.9 µM | > 100 µM | 44.8 µM | > 100 µM | 52 µM | > 100 µM | – | – | –
14 | CSc1ccc2c(c1)N(CCCN(C)C)c1ccccc1S2 | – | 29.2 µM | – | 26.5 µM | – | 23.8 µM | – | 30.6 µM | – | 28.4 µM | – | 35.1 µM | – | 31.5 µM | – | 20.8 µM | – | – | –
15 | COc1ccccc1CNCCCN1C(=O)c2ccc3c4c(ccc(c24)C1=O)C(=O)N(CCCNCCCCN)C3=O | 1.21 µM | 2.59 µM | 0.313 µM | 1 µM | 0.307 µM | 2.35 µM | 0.51 µM | 2.58 µM | 0.546 µM | 2.1 µM | 1.15 µM | 2.82 µM | 0.222 µM | 0.595 µM | 0.344 µM | 1.67 µM | – | – | –
16 | COc1cc(/C=C/C(=O)/C=C/c2ccc(-n3ccnc3)cc2)ccc1O | 1.87 µM | 3.79 µM | 14.1 µM | 34.9 µM | 2.19 µM | 5.4 µM | 4.37 µM | 47.7 µM | 3.12 µM | 11.8 µM | 13.2 µM | 42 µM | 2.07 µM | 5.04 µM | 9.96 µM | > 100 µM | – | – | –
17 | COc1ccc([C@H]2c3[nH]c4ccccc4c3C[C@H]3C(=O)N(CCCCCCC(=O)NO)CC(=O)N23)cc1 | 10.9 µM | > 33.3 µM | 2.76 µM | > 33.3 µM | 2.42 µM | > 33.3 µM | 4.34 µM | > 33.3 µM | 2.45 µM | > 33.3 µM | 13.4 µM | > 33.3 µM | 1.96 µM | 28.7 µM | 1.12 µM | > 33.3 µM | – | – | –
18 | COc1cc(OC)c(OC)cc1/C=C\c1ccnc2ccccc12 | – | > 100 µM | – | 37.3 µM | – | > 100 µM | – | > 74.5 µM | – | > 62.1 µM | – | > 46.3 µM | – | 23.5 µM | – | 2.51 µM | > 100 µM | – | –
